Experimental data reported in patent publication US20260374773A1, “MULTI-CYCLIC IRAK AND FLT3 INHIBITING COMPOUNDS AND USES THEREOF” (CHILDREN'S HOSPITAL MEDICAL CENTER, priority 2022, published 2026).

Molecular target: T1, FLT3 R834Q (Homo sapiens, UniProt P36888, R834Q)
T1 sequence (P36888 27-993 R834Q): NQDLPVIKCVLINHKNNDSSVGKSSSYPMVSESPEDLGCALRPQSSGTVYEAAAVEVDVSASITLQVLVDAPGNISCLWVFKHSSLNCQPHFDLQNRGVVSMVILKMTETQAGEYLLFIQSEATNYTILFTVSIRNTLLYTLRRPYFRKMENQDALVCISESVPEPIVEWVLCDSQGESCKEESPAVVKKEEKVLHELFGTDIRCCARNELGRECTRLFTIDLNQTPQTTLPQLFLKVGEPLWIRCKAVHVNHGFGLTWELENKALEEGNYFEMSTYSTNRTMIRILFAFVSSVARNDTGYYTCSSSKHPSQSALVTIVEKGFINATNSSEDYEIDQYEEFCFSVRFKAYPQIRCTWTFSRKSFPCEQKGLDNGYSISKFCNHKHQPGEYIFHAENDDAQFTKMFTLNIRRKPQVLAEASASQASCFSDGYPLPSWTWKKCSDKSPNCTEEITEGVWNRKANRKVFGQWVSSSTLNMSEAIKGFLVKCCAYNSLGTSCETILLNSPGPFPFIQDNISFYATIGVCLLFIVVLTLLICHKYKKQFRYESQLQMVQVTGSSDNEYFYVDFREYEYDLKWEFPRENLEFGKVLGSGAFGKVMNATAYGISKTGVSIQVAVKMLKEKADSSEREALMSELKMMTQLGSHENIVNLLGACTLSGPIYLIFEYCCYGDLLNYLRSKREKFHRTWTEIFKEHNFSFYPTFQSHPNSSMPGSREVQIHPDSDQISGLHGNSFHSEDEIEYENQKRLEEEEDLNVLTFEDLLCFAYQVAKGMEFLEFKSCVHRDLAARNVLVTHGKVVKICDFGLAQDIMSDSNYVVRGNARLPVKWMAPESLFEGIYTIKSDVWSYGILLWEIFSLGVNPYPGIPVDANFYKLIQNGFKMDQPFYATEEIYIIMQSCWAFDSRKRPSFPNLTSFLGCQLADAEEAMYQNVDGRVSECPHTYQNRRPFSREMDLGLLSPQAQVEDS
Test: DiscoverX KINOMEscan active site-directed competition binding, FLT3 R834Q
Details: no ATP
Excerpt: (§1) Kinase binding data were obtained for various exemplary compounds prepared according to Examples 1-8 using the DiscoverX KINOMEscan® active site-directed competition binding site-directed assay protocol described below. […] As a result, the data report thermodynamic interaction affinities (Kd values), rather than IC50 values that are dependent on ATP concentrations. The assay uses a DNA-tagged version of the protein kinase, and an immobilized ligand bound to a solid support. Compounds that directly or indirectly prevent kinase binding to the immobilized ligand reduce the amount of kinase captured on the solid support, which is detected using an ultra-sensitive qPCR method. Affinity constants reported from the assay have been reported to be independent of the immobilized ligand used that is coupled to the solid support (See supplemental information in Fabian, M. A. et. al., (2005) Nat. Biotechnol. 23, 329-336; Wodicka, L. M. et. al., (2010) Chem. Biol. 17, 1241-1249.)
Kinase-tagged T7 phage strains were prepared in an E. coli host derived from the BL21 strain. E. coli were grown to log-phase and infected with T7 phage and incubated with shaking at 32 °C until lysis. The lysates were centrifuged and filtered to remove cell debris. The remaining kinases were produced in HEK-293 cells and subsequently tagged with DNA for qPCR detection. Streptavidin-coated magnetic beads were treated with biotinylated small molecule ligands for 30 minutes at room temperature to generate affinity resins for kinase assays. The liganded beads were blocked with excess biotin and washed with blocking buffer (SeaBlock (Pierce), 1% BSA, 0.05% Tween 20, 1 mM DTT) to remove unbound ligand and to reduce non-specific binding. […] Test compounds were prepared as 111x stocks in 100% DMSO. Kds were determined using an 11-point 3-fold compound dilution series with three DMSO control points. All compounds for Kd measurements are distributed by acoustic transfer (non-contact dispensing) in 100% DMSO. The compounds were then diluted directly into the assays such that the final concentration of DMSO was 0.9%. All reactions were performed in polypropylene 384-well plates. Each was a final volume of 0.02 mL. The assay plates were incubated at room temperature with shaking for 1 hour and the affinity beads were washed with wash buffer (1×PBS, 0.05% Tween 20). The beads were then re-suspended in elution buffer (1×PBS, 0.05% Tween 20, 0.5 μM nonbiotinylated affinity ligand) and incubated at room temperature with shaking for 30 minutes. The kinase concentration in the eluates was measured by qPCR. Binding constants (Kds) were calculated with a standard dose-response curve using the Hill equation. The Hill Slope was set to −1. Curves were fitted using a non-linear least square fit with the Levenberg-Marquardt algorithm.
as §1, with “9-12” for “1-8”
Kinase-tagged T7 phage strains were prepared in an E. coli host derived from the BL21 strain. […]

Compound	Kd (Table 19) [nM]	Kd (Table 13) [nM]
COc1cn2ncc(-c3nc(N[C@H]4CNCC[C@@H]4F)ncc3F)c2nc1C(C)(C)O [Compound 6a, 2-(3-(5-fluoro-2-(((3S,4S)-4-fluoropiperidin-3-yl)amino)pyrimidin-4-yl)-6-methoxypyrazolo[1,5-a]pyrimidin-5-yl)propan-2-ol]	3.8	–
COc1cn2ncc(-c3nc(N[C@@H]4CCCNC4)ncc3F)c2nc1C1CC1 [Compound 14a, (R)-4-(5-cyclopropyl-6-methoxypyrazolo[1,5-a]pyrimidin-3-yl)-5-fluoro-N-(piperidin-3-yl)pyrimidin-2-amine]	< 0.17	–
COc1cn2ncc(-c3ccnc(N[C@H]4CNCC[C@@H]4F)n3)c2nc1C1CC1 [Compound 7a, 4-(5-cyclopropyl-6-methoxypyrazolo[1,5-a]pyrimidin-3-yl)-N-((3S,4S)-4-fluoropiperidin-3-yl)pyrimidin-2-amine]	0.43	–
COc1cn2ncc(-c3nc(N[C@H]4CNCC[C@@H]4F)c(C#N)cc3F)c2nc1C(C)(C)O [Compound 10, 5-fluoro-2-(((3S,4S)-4-fluoropiperidin-3-yl)amino)-6-(5-(2-hydroxypropan-2-yl)-6-methoxypyrazolo[1,5-a]pyrimidin-3-yl)nicotinonitrile]	–	2.2
COc1cn2ncc(-c3cncc(N[C@H]4CNCC[C@@H]4F)n3)c2nc1C1CC1 [Compound 12a, 6-(5-cyclopropyl-6-methoxypyrazolo[1,5-a]pyrimidin-3-yl)-N-((3S,4S)-4-fluoropiperidin-3-yl)pyrazin-2-amine]	0.35	–
COc1cn2ncc(-c3nc(N[C@H]4CNCC[C@@H]4F)c(F)cc3F)c2nc1C(C)(C)O [Compound 13, 2-(3-(3,5-difluoro-6-(((3S,4S)-4-fluoropiperidin-3-yl)amino)pyridin-2-yl)-6-methoxypyrazolo[1,5-a]pyrimidin-5-yl)propan-2-ol]	–	3.3
COc1cn2ncc(-c3nc(N[C@H]4CNCC[C@@H]4F)c(C#N)cc3F)c2nc1C1CC1 [Compound 7, 6-(5-cyclopropyl-6-methoxypyrazolo[1,5-a]pyrimidin-3-yl)-5-fluoro-2-(((3S,4S)-4-fluoropiperidin-3-yl)amino)nicotinonitrile]	–	< 0.17
COc1cn2ncc(-c3nc(N[C@H]4CNCC[C@@H]4F)ncc3F)c2nc1C1CC1 [Compound 15a, 4-(5-cyclopropyl-6-methoxypyrazolo[1,5-a]pyrimidin-3-yl)-5-fluoro-N-((3S,4S)-4-fluoropiperidin-3-yl)pyrimidin-2-amine]	< 0.17	–
